ED50 data for 3 compounds are collected here from patent US4228298A, “15-Deoxy-16-hydroxy-16-fluoromethyl, difluoromethyl or trifluoromethyl prostaglandins of the E and F series” (American Cyanamid Company, priority 1979, dated 1980).

The structures appear in SMILES notation.

Holding throughout (format): in vivo
For experiment [1], the system named is bronchospasms elicited by acetylcholine. Kind of experiment: Konzett procedure, bronchodilator activity against bronchospasms elicited by intravenous acetylcholine. Particulars: Cavia porcellus; spasmogen acetylcholine; three logarithmic cumulative intravenous doses; guinea-pigs; read-out: ED 50 (spasmogen Acetylcholine). The protocol:
(§1) The bronchodilator activity for representative compounds of this invention was determined in Guinea-Pigs against bronchospasms elicited by intravenous injections of serotonin, histamine, and acetylcholine, by the Konzett procedure the details of which are those discussed by J. Lulling, P. Lievens, F. El Sayed and J. Prignot, Arzeimittel-Forschung 18, 995 (1968).
(§2) In the table which follows, bronchodilator activity for representative compounds of the invention against spasmogenic agents serotonin, histamine, and acetylcholine is expressed as an ED50 determined from the results obtained with three logarithmic cumulative intravenous doses.

Experiment [2] concerns bronchospasms elicited by serotonin. Kind of experiment: Konzett procedure, bronchodilator activity against bronchospasms elicited by intravenous serotonin. Particulars: Cavia porcellus; spasmogen serotonin; three logarithmic cumulative intravenous doses; guinea-pigs; read-out: ED 50 (spasmogen Serotonin). The method, then:
as §1, §2

For experiment [3], the system named is bronchospasms elicited by histamine. Kind of experiment: Konzett procedure, bronchodilator activity against bronchospasms elicited by intravenous histamine. Particulars: Cavia porcellus; spasmogen histamine; three logarithmic cumulative intravenous doses; guinea-pigs; read-out: ED 50 (spasmogen Histamine). The protocol: as §1, §2

For the compound `CCCCC(O)(C/C=C/[C@H]1[C@H](O)CC(=O)[C@@H]1C/C=C\CCCC(=O)O)C(F)F` (relative stereo) [dl-11α,16-dihydroxy-9-oxo-16-difluoromethyl-5-cis-13-trans prostadienoic acid], the ED50 in experiment [1] came out at 4.04 µg/kg; in experiment [2], 4.6 µg/kg; in experiment [3], 2.78 µg/kg.

As for `CCCCC(O)(CF)C/C=C/[C@H]1[C@H](O)CC(=O)[C@@H]1C/C=C\CCCC(=O)O` (relative stereo) [dl-11α,16-dihydroxy-9-oxo-16-fluoromethyl-5-cis-13-trans prostadienoic acid], the ED50 amounted to 1.94 µg/kg in experiment [1], 1.38 µg/kg in experiment [2] and 2.57 µg/kg in experiment [3].

On to `CCCCC(O)(C/C=C/[C@H]1[C@H](O)CC(=O)[C@@H]1C/C=C\CCCC(=O)O)C(F)(F)F` (relative stereo) [dl-11α,16-dihydroxy-9-oxo-16-trifluoromethyl-5-cis-13-trans prostadienoic acid], for which the figures for the ED50 in experiment [1], in experiment [2] and in experiment [3] were 10 µg/kg, 7.96 µg/kg and 4.15 µg/kg, respectively.
